Source: patent publication US4113946A, “Δ^2,3 -1,4-Morpholine-2-carboxylic acid derivatives as antibacterial agents” (Bristol-Myers Company, priority 1977, dated 1978)
Converted amounts (≈) assume the structure as drawn. Where a name gives a salt, the structure may show the parent alone. Read-outs that look alike come from different tables or passages of the source.

Experiments:
S. aureus Smith A9537 = test: M.I.C. by tube dilution, S. aureus Smith A9537; type: cell-based; conditions: Staphylococcus aureus
K. pneumoniae A9977 = test: M.I.C. by tube dilution, K. pneumoniae A9977; type: cell-based; conditions: Klebsiella pneumoniae
Pr. morganii A15153 = test: M.I.C. by tube dilution, Pr. morganii A15153; type: cell-based; conditions: Morganella morganii
Ent. cloacae A9659 = test: M.I.C. by tube dilution, Ent. cloacae A9659; type: cell-based; conditions: Enterobacter cloacae, A9659, overnight 37° C.
Str. pyogenes A9604 = test: M.I.C. by tube dilution, Str. pyogenes A9604; type: cell-based; conditions: Streptococcus pyogenes, +5% serum, 50% Nutrient Broth - 45% Antibiotic Assay Broth, overnight 37° C., read-out: M.I.C.
S. aureus BX1633-2 A9606 = test: M.I.C. by tube dilution, S. aureus BX1633-2 A9606; type: cell-based; conditions: Staphylococcus aureus, overnight 37° C.
D. pneumoniae A9585 = test: M.I.C. by tube dilution, D. pneumoniae A9585; type: cell-based; conditions: Streptococcus pneumoniae, A9585
Sal. enteritidis A9531 = test: M.I.C. by tube dilution, Sal. enteritidis A9531; type: cell-based; conditions: Salmonella enterica, ENTERITIDIS
E. coli Juhl A15119 = test: M.I.C. by tube dilution, E. coli Juhl A15119; type: cell-based; conditions: Escherichia coli, JUHLA15119
Pr. mirabilis A9900 = test: M.I.C. by tube dilution, Pr. mirabilis A9900; type: cell-based; conditions: Proteus mirabilis
Ser. marcescens A20019 = test: M.I.C. by tube dilution, Ser. marcescens A20019; type: cell-based; conditions: Serratia marcescens
E. coli A9675 = test: M.I.C. by tube dilution, E. coli A9675; type: cell-based; conditions: Escherichia coli
K. pneumoniae A15130 = test: M.I.C. by tube dilution, K. pneumoniae A15130; type: cell-based; conditions: Klebsiella pneumoniae
Ent. cloacae A9656 = test: M.I.C. by tube dilution, Ent. cloacae A9656; type: cell-based; conditions: Enterobacter cloacae
[1] = tested on: S. aureus meth.-resist; A15097; test: M.I.C. by tube dilution, S. aureus meth.-resist A15097; type: cell-based; conditions: Staphylococcus aureus, at 10^-3 dil'n, overnight 37° C.
Ps. aeruginosa A9843A = test: microbe, parasite or virus in culture; type: cell-based; conditions: Pseudomonas aeruginosa
Ent. cloacae A9657 = test: M.I.C. by tube dilution, Ent. cloacae A9657; type: cell-based; conditions: Enterobacter cloacae
St. pyrogenes = test: Inhibition of St. pyrogenes; type: cell-based; conditions: read-out: found to inhibit St. pyrogenes at a concentration of
in vivo = conditions: mouse, po, 100 mg/kg
[2] = SMITHA9537, +50% serum, at 10^-4 dilution, overnight 37° C.
[3] = SMITHA9537, at 10^-4 dilution, overnight 37° C., read-out: M.I.C.
[4] = at 10^-4 dilution, overnight 37° C., read-out: M.I.C.
[5] = +5% serum, 50% Nutrient Broth - 45% Antibiotic Assay Broth, overnight 37° C., read-out: M.I.C.
[6] = overnight 37° C., read-out: M.I.C.
[7] = A9657, overnight 37° C., read-out: M.I.C.
[8] = SMITHA9537, at 10^-4 dilution, overnight 37° C.

Compound | MIC (S. aureus Smith A9537; [2]) [µg/mL] | MIC (S. aureus Smith A9537; [3]) [µg/mL] | MIC (K. pneumoniae A9977) [µg/mL] | MIC (Pr. morganii A15153; [4]) [µg/mL] | MIC (Str. pyogenes A9604) [µg/mL] | MIC (S. aureus BX1633-2 A9606; BX16332A9606, at 10^-2 dil'n) [µg/mL] | MIC (S. aureus BX1633-2 A9606; BX16332A9606, at 10^-3 dil'n) [µg/mL] | MIC (D. pneumoniae A9585; [5]) [µg/mL] | MIC (Sal. enteritidis A9531) [µg/mL] | MIC (E. coli Juhl A15119; [4]) [µg/mL] | MIC (Pr. mirabilis A9900) [µg/mL] | MIC [1] [µg/mL] | MIC (Ps. aeruginosa A9843A) [µg/mL] | MIC (Pr. morganii A15153) [µg/mL] | MIC (Ent. cloacae A9659) [µg/mL] | MIC (Ser. marcescens A20019) [µg/mL] | MIC (E. coli A9675) [µg/mL] | MIC (K. pneumoniae A15130) [µg/mL] | MIC (Ent. cloacae A9656) [µg/mL] | MIC (Ent. cloacae A9657; A9657) [µg/mL] | also measured
CC1=C(C(=O)O)N2C(=O)[C@@H](NC(=O)COc3ccccc3)[C@H]2CO1 (relative stereo) [BC-L8, 7β-phenoxyacetamido-3-methyl-O-2-isocephem-4-carboxylic acid] | 2 (≈ 6.02 µM) | 0.5 (≈ 1.5 µM) | 32 (≈ 96.3 µM) | 500 (≈ 1500 µM) | 0.5 (≈ 1.5 µM) | 32 (≈ 96.3 µM) | 2 (≈ 6.02 µM) | 0.5 (≈ 1.5 µM) | 8 (≈ 24.1 µM) | 63 (≈ 190 µM) | 16 (≈ 48.1 µM) | 32 (≈ 96.3 µM) | 500 (≈ 1500 µM) | – | – | – | – | – | – | – | MIC (Ent. cloacae A9659; read-out: M.I.C.): 500 µg/mL (≈ 1500 µM); MIC (Ser. marcescens A20019; [4]): 500 µg/mL (≈ 1500 µM); MIC (E. coli A9675; [4]): 250 µg/mL (≈ 752 µM); MIC (K. pneumoniae A15130; [4]): 500 µg/mL (≈ 1500 µM); MIC (Ent. cloacae A9656; [6]): 500 µg/mL (≈ 1500 µM); MIC (Ent. cloacae A9657; [7]): 63 µg/mL (≈ 190 µM)
COC(=O)CC1=C(C(=O)O)N2C(=O)[C@@H](NC(=O)COc3ccccc3)[C@H]2CO1 (relative stereo) [BC-L33, 7β-Phenoxyacetamido-3-carbomethoxymethylene-Δ^3 -O-2-isocephem-4-carboxylic acid] | 1 (≈ 2.56 µM) | 0.25 (≈ 0.64 µM) | – | – | 0.06 (≈ 0.154 µM) | > 125 | 16 (≈ 41 µM) | 0.06 (≈ 0.154 µM) | 8 (≈ 20.5 µM) | – | 32 (≈ 82 µM) | > 125 | > 125 | > 125 | > 125 | > 125 | > 125 | > 125 | > 125 | > 125 | MIC (K. pneumoniae A9977; [4]): 63 µg/mL (≈ 161 µM); MIC (E. coli Juhl A15119): 125 µg/mL (≈ 320 µM)
CC1=C(C(=O)O)N2C(=O)[C@@H](N)[C@H]2CO1 (relative stereo) [BC-L61, 7β-Amino-3-methyl-Δ^3 -O-2-isocephem-4-carboxylic acid] | – | – | – | – | – | – | – | – | – | – | – | – | – | – | – | – | – | – | – | – | MIC (S. aureus Smith A9537; SMITHA9537, read-out: found to inhibit S. aureus A9537 at a concentration of): > 125 µg/mL; MIC (D. pneumoniae A9585; read-out: found to inhibit D. pneumoniae A9585 at a concentration of): > 8 µg/mL; MIC (E. coli Juhl A15119; read-out: found to inhibit E. coli A15119 at a concentration of): > 125 µg/mL; MIC (St. pyrogenes): > 8 µg/mL
CC1=C(C(=O)O)N2C(=O)[C@@H](NC(=O)[C@H](N)c3ccccc3)[C@H]2CO1 [BC-L9, 7β-(D-α-aminophenylacetamido)-3-methyl-Δ^3 -O-2-isocephem-4-carboxylic acid hydrochloride] | 16 | – | 16 | 250 | 0.5 | 32 | 8 | 0.5 | 16 | – | – | 32 | > 500 | – | 125 | – | – | – | – | 32 | MIC (S. aureus Smith A9537; [8]): 2 µg/mL; MIC (E. coli Juhl A15119): 32 µg/mL; MIC (Pr. mirabilis A9900; [4]): 63 µg/mL; MIC (Ser. marcescens A20019; [4]): 500 µg/mL; MIC (E. coli A9675; [4]): 63 µg/mL; MIC (K. pneumoniae A15130; [4]): 63 µg/mL; MIC (Ent. cloacae A9656; [6]): 500 µg/mL
O=C(COc1ccccc1)NC1C(=O)N2C(C(=O)O)=C(Cc3ccccc3)OCC12 (stereo not drawn) [BC-L17, 7β-phenoxyacetamido-3-benzyl-Δ^3 -O-2-isocephem-4-carboxylic acid] | 1 (≈ 2.45 µM) | 0.25 (≈ 0.612 µM) | > 125 | – | 0.25 (≈ 0.612 µM) | > 125 | 8 (≈ 19.6 µM) | 0.25 (≈ 0.612 µM) | 32 (≈ 78.4 µM) | – | > 125 | 125 (≈ 306 µM) | > 125 | > 125 | > 125 | > 125 | > 125 | > 125 | > 125 | > 125 | MIC (E. coli Juhl A15119): > 125 µg/mL
CC1=C(C(=O)O)N2C(=O)[C@@H](NC(=O)C(N)c3ccccc3)[C@H]2CO1 (stereo partly drawn) [BC-L45, 7β-(α-amino-α-phenylacetamido)-3-methyl-Δ^3 -O-2-isocephem-4-carboxylic acid] | 8 (≈ 24.1 µM) | – | – | 63 (≈ 190 µM) | < 0.25 | – | 8 (≈ 24.1 µM) | < 0.25 | – | 4 (≈ 12.1 µM) | 8 (≈ 24.1 µM) | – | > 125 | – | 125 (≈ 377 µM) | > 125 | 32 (≈ 96.6 µM) | 8 (≈ 24.1 µM) | 125 (≈ 377 µM) | – | MIC (S. aureus Smith A9537; [8]): 1 µg/mL (≈ 3.02 µM); MIC (K. pneumoniae A9977; [4]): 4 µg/mL (≈ 12.1 µM); MIC (S. aureus BX1633-2 A9606; BX16332A9606, at 10^-2 dil'n, read-out: M.I.C.): 63 µg/mL (≈ 190 µM); MIC (Sal. enteritidis A9531; [4]): 4 µg/mL (≈ 12.1 µM); concentration at 0.5 h (in vivo): 19400 ng/mL; concentration at 1 h (in vivo): 15700 ng/mL; concentration at 2 h (in vivo): 7300 ng/mL; concentration at 3.5 h (in vivo): 2900 ng/mL; MIC ([1]; read-out: M.I.C.): 63 µg/mL (≈ 190 µM); MIC (Ent. cloacae A9657; [7]): 4 µg/mL (≈ 12.1 µM)
O=C(COc1ccccc1)NC1C(=O)N2C(C(=O)O)=C(CCc3ccccc3)OCC12 (stereo not drawn) [BC-L54, 7β-phenoxyacetamido-3-phenethyl-Δ^3 -O-2-isocephem-4-carboxylic acid] | – | 0.06 (≈ 0.142 µM) | > 125 | – | 0.03 (≈ 0.071 µM) | > 125 | 8 (≈ 18.9 µM) | 0.03 (≈ 0.071 µM) | > 125 | 0.5 (≈ 1.18 µM) | > 125 | 125 (≈ 296 µM) | > 125 | > 125 | > 125 | > 125 | > 125 | > 125 | > 125 | > 125 | MIC (S. aureus Smith A9537; SMITHA9537, +50% serum, at 10^-4 dilution, overnight 37° C., read-out: M.I.C.): 4 µg/mL (≈ 9.47 µM)
